Source: ChEMBL document CHEMBL3102853, “Carbonic anhydrase inhibitors. Synthesis, and molecular structure of novel series N-substituted N'-(2-arylmethylthio-4-chloro-5-methylbenzenesulfonyl)guanidines and their inhibition of human cytosolic isozymes I and II and the transmembrane tumor-associated isozymes IX and XII” (Eur J Med Chem, 2014)
Active and inactive are the calls of the source. No cut-off for these calls is given here.

Experiments:
Type in all cases: functional
[1] = tested on: RPMI-8226; assay: Cytotoxicity against human RPMI8226 cells at 10 uM; settings: read-out: GI
[2] = tested on: DU-145; assay: Cytotoxicity against human DU145 cells at 10 uM; settings: for inhibition of growth at 10 µM: read-out: GI
[3] = tested on: MCF7; assay: Cytotoxicity against human MCF7 cells at 10 uM; settings: read-out: GI
[4] = tested on: NCI-H460; assay: Cytotoxicity against human NCI-H460 cells at 10 uM; settings: read-out: GI
[5] = tested on: SNB-75; assay: Cytotoxicity against human SNB75 cells at 10 uM; settings: read-out: GI
[6] = tested on: MOLT-4; assay: Cytotoxicity against human MOLT4 cells at 10 uM; settings: read-out: GI
[7] = tested on: HT-29; assay: Cytotoxicity against human HT-29 cells at 10 uM; settings: for inhibition of growth at 10 µM: read-out: GI
[8] = tested on: SF-268; assay: Cytotoxicity against human SF268 cells at 10 uM; settings: read-out: GI
[9] = tested on: MDA-MB-468; assay: Cytotoxicity against human MDA-MB-468 cells at 10 uM; settings: read-out: GI
[10] = tested on: HOP-92; assay: Cytotoxicity against human HOP92 cells at 10 uM; settings: read-out: GI
[11] = tested on: SW-620; assay: Cytotoxicity against human SW620 cells at 10 uM; settings: for inhibition of growth at 10 µM: read-out: GI
[12] = tested on: A549; assay: Cytotoxicity against human A549 cells at 10 uM; settings: read-out: GI
[13] = tested on: LOX IMVI; assay: Cytotoxicity against human LOXIMVI cells at 10 uM; settings: read-out: GI
[14] = tested on: SR; assay: Cytotoxicity against human SR cells at 10 uM; settings: read-out: GI
[15] = tested on: SK-MEL-2; assay: Cytotoxicity against human SK-MEL-2 cells at 10 uM; settings: read-out: GI
[16] = tested on: A498; assay: Cytotoxicity against human A498 cells at 10 uM; settings: read-out: GI
[17] = tested on: K562; assay: Cytotoxicity against human K562 cells at 10 uM; settings: read-out: GI
[18] = tested on: T47D; assay: Cytotoxicity against human T47D cells at 10 uM; settings: read-out: GI
[19] = tested on: NCI/ADR-RES; assay: Cytotoxicity against human NCI-ADR-RES cells at 10 uM
[20] = tested on: PC-3; assay: Cytotoxicity against human PC3 cells at 10 uM; settings: read-out: GI
[21] = tested on: OVCAR-3; assay: Cytotoxicity against human OVCAR3 cells at 10 uM; settings: for inhibition of growth at 10 µM: read-out: GI
[22] = Cytotoxicity against human Hs 578T cells at 10 uM; settings: read-out: GI
[23] = tested on: HL-60(TB); assay: Cytotoxicity against human HL-60(TB) cells at 10 uM; settings: read-out: GI
[24] = tested on: KM12; assay: Cytotoxicity against human KM12 cells at 10 uM; settings: read-out: GI
[25] = tested on: UACC-62; assay: Cytotoxicity against human UACC62 cells at 10 uM; settings: read-out: GI

Compound | inhibition of growth at 10 µM [1] | inhibition of growth at 10 µM [3] | inhibition of growth at 10 µM [4] | inhibition of growth at 10 µM [5] | inhibition of growth at 10 µM [6] | inhibition of growth at 10 µM [8] | inhibition of growth at 10 µM [9] | inhibition of growth at 10 µM [10] | inhibition of growth at 10 µM [12] | inhibition of growth at 10 µM [13] | inhibition of growth at 10 µM [14] | inhibition of growth at 10 µM [15] | inhibition of growth at 10 µM [16] | inhibition of growth at 10 µM [17] | inhibition of growth at 10 µM [18] | growth inhibition (GI) [19] | inhibition of growth at 10 µM [20] | inhibition of growth at 10 µM [22] | inhibition of growth at 10 µM [23] | inhibition of growth at 10 µM [24] | further results
Cc1cc(S(=O)(=O)NC(=N)Nc2cccc(S(N)(=O)=O)c2)c(SCc2ccccc2)cc1Cl | 23% | 21% | 3% | 35% | 34% | 12% | 32% | 46% | 16% | 15% | 15% | 14% | 16% | 22% | 13% | inactive | 45% | 17% | 16% | 5% | growth inhibition (GI) [2]: inactive; inhibition of growth at 10 µM [7]: 8%; growth inhibition (GI) [11]: inactive; growth inhibition (GI) [21]: inactive; inhibition of growth at 10 µM [25]: 30%
Cc1cc(S(=O)(=O)NC(=N)NCc2ccc(S(N)(=O)=O)cc2)c(SCc2cc3c(cc2Cl)OCO3)cc1Cl | 57% | 60% | 20% | 42% | 50% | 28% | 62% | 57% | 30% | 28% | 50% | 38% | 10% | 57% | 48% | inactive | 54% | 29% | 58% | 38% | inhibition of growth at 10 µM [2]: 2%; inhibition of growth at 10 µM [7]: 15%; inhibition of growth at 10 µM [11]: 8%; inhibition of growth at 10 µM [21]: 41%; inhibition of growth at 10 µM [25]: 56%
Cc1cc(S(=O)(=O)NC(=N)NCc2ccc(S(N)(=O)=O)cc2)c(SCc2ccccc2)cc1Cl | 41% | 37% | 10% | 43% | 31% | 16% | 45% | 63% | 21% | 12% | 29% | 32% | 25% | 34% | 35% | inactive | 36% | 44% | 28% | 16% | growth inhibition (GI) [2]: inactive; growth inhibition (GI) [7]: inactive; inhibition of growth at 10 µM [11]: 4%; inhibition of growth at 10 µM [21]: 24%; inhibition of growth at 10 µM [25]: 49%
Cc1cc(S(=O)(=O)NC(=N)Nc2cccc(S(N)(=O)=O)c2)c(SCc2ccc(C(F)(F)F)cc2)cc1Cl | 39% | 51% | 19% | 53% | 51% | 19% | 26% | 37% | 36% | 20% | 54% | 27% | 13% | 48% | 35% | inactive | 68% | 13% | 33% | 34% | inhibition of growth at 10 µM [2]: 6%; inhibition of growth at 10 µM [7]: 20%; inhibition of growth at 10 µM [11]: 5%; inhibition of growth at 10 µM [21]: 33%; inhibition of growth at 10 µM [25]: 35%
